For assay [1], the target named is T1, Adenosine receptor A1 (Homo sapiens, UniProt P30542).
T1 sequence (P30542 whole entry): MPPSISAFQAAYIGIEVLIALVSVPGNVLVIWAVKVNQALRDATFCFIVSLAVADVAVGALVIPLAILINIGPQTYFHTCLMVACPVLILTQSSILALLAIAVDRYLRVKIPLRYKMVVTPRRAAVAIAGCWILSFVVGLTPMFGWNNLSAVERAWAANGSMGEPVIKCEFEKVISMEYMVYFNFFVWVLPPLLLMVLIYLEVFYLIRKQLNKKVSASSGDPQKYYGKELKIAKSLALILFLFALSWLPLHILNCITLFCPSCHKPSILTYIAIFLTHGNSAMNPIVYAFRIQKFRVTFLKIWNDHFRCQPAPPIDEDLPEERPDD

Assay [2] has as its target Vasopressin V2 receptor (Homo sapiens, UniProt P30518).
Assay [3] deals with Histamine H1 receptor (Homo sapiens, UniProt P35367).
Histamine H1 receptor, sequence (P35367 whole entry): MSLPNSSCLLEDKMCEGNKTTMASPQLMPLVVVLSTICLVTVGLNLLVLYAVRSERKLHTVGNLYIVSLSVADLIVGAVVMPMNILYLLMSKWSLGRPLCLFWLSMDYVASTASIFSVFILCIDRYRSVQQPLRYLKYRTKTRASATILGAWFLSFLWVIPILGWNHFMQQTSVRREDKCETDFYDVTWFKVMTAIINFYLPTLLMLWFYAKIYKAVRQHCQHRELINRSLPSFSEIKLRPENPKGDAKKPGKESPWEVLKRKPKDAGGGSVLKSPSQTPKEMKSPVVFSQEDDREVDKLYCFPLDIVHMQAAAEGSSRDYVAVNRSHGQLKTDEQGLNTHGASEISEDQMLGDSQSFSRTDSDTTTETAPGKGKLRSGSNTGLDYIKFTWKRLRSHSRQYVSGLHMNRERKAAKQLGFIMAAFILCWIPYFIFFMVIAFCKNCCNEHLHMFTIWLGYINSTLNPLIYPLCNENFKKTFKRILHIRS
In assay [4] the target is T2, Glucocorticoid receptor (Homo sapiens, UniProt P04150).
T2 sequence (P04150 whole entry): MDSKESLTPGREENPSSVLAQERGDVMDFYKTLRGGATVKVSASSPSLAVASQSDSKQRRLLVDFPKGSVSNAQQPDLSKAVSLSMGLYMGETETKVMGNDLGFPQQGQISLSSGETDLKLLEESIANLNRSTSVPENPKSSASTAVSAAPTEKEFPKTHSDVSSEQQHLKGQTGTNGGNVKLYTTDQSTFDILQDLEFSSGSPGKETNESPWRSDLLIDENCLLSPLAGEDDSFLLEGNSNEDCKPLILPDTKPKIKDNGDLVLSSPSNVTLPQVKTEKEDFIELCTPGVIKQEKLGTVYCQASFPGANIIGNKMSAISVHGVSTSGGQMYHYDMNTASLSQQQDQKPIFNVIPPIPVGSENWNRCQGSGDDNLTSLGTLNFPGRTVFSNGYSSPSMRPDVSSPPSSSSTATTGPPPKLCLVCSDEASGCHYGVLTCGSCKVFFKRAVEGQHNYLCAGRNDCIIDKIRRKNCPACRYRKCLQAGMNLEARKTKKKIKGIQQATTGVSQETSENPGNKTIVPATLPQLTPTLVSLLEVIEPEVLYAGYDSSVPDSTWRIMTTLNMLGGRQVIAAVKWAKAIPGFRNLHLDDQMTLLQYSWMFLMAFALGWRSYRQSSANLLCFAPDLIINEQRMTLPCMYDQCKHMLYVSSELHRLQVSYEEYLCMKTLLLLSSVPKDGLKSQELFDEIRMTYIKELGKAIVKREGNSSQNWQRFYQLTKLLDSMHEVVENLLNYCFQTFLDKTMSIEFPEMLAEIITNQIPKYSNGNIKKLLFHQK

Assay [5] deals with T3, Gamma-aminobutyric acid receptor subunit alpha-1 (Rattus norvegicus, UniProt P62813).
T3 sequence (P62813 whole entry): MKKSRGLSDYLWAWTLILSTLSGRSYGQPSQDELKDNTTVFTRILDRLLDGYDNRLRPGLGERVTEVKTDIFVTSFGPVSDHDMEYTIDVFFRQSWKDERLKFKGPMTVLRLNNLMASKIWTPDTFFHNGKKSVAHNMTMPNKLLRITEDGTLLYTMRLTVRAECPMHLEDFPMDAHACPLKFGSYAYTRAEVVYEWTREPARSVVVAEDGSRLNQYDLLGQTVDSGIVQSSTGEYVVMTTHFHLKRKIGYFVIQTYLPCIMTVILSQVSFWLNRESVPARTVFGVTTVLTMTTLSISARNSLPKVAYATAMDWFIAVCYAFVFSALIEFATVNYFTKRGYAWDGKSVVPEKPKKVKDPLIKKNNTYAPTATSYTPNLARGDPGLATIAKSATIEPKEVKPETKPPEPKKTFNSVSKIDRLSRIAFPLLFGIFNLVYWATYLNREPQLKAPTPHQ
Assay [6] has as its target 3',5'-cyclic-AMP phosphodiesterase 4D (Homo sapiens, UniProt Q08499). The format is functional.
Assay [7] deals with T4, Endothelin-1 receptor (Homo sapiens, UniProt P25101).
T4 sequence (P25101 whole entry): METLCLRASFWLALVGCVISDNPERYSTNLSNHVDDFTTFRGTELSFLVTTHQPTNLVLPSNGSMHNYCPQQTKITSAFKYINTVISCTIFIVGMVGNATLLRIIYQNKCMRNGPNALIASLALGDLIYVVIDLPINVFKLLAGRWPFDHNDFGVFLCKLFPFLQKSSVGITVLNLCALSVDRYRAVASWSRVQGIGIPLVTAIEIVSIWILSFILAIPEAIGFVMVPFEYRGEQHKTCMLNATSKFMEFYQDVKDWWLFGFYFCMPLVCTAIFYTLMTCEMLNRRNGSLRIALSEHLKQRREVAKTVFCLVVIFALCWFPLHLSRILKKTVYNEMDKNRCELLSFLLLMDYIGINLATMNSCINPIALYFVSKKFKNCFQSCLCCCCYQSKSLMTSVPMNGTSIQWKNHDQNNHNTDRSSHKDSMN

The target of assay [8] is 5-hydroxytryptamine receptor 2B (Homo sapiens, UniProt P41595). The format is functional, cell-based.
5-hydroxytryptamine receptor 2B, sequence (P41595 whole entry): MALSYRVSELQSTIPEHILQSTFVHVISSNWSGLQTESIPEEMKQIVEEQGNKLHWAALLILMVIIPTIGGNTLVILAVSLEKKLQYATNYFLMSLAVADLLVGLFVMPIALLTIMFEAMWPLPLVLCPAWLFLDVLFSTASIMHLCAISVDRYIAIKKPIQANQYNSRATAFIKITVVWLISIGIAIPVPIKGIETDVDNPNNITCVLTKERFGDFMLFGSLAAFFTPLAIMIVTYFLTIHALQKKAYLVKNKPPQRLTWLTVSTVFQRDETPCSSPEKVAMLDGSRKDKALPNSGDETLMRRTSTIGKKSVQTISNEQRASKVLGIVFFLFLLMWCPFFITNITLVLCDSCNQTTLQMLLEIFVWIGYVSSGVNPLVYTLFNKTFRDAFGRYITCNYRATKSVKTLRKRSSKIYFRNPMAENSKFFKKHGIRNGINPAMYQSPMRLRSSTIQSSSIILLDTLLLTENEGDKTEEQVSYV
The target in assay [9] is T3, Gamma-aminobutyric acid receptor subunit alpha-1. The class given is functional.
Assay [10] has as its target T5, Type-1 angiotensin II receptor (Homo sapiens, UniProt P30556).
T5 sequence (P30556 whole entry): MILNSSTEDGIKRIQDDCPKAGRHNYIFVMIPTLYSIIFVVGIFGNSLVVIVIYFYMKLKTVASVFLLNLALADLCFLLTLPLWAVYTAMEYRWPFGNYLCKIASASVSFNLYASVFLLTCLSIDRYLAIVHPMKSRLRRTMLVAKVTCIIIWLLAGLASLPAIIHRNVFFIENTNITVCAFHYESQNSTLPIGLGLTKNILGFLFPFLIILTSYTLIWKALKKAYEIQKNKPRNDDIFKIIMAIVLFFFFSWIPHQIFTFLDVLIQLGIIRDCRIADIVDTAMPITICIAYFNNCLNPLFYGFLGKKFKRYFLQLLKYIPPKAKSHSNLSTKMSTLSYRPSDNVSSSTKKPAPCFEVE

The target in assay [11] is T6, Muscarinic acetylcholine receptor M2 (Homo sapiens, UniProt P08172).
T6 sequence (P08172 whole entry): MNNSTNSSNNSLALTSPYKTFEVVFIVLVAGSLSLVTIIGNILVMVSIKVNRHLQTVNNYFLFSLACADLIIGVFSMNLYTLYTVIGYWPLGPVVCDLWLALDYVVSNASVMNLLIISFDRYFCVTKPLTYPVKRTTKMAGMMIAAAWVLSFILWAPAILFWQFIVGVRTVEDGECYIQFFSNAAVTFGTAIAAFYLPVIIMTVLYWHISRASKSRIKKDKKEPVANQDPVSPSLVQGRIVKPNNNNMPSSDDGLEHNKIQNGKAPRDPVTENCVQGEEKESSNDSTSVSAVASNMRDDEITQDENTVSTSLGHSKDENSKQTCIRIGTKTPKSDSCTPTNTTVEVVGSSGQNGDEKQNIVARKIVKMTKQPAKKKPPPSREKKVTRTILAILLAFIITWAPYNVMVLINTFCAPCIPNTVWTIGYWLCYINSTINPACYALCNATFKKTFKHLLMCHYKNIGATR
The format is functional, cell-based.

Assay [12] deals with Cannabinoid receptor 1 (Homo sapiens, UniProt P21554). The format is functional, cell-based.
Cannabinoid receptor 1, sequence (P21554 whole entry): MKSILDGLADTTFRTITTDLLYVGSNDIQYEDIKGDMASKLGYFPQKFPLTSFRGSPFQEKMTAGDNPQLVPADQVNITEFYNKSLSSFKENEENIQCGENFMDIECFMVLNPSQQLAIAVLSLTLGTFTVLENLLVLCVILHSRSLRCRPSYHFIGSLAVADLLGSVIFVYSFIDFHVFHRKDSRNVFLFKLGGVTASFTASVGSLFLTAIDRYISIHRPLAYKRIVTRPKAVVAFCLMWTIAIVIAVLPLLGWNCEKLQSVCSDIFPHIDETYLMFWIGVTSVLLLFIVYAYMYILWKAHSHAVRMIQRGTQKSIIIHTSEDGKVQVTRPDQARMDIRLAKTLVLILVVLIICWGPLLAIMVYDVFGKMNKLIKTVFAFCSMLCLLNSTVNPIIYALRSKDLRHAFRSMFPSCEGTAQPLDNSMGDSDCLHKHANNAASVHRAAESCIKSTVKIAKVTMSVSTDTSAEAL

Where a SMILES comes first, the peptide text is derived from it. Where only a bound is given, the exact number is not on record here.

By AC50 is commonly meant the concentration giving half of the maximal activity seen.
Note: assay procedure not described here.

3',5'-cyclic-AMP phosphodiesterase 4D, sequence (Q08499 whole entry): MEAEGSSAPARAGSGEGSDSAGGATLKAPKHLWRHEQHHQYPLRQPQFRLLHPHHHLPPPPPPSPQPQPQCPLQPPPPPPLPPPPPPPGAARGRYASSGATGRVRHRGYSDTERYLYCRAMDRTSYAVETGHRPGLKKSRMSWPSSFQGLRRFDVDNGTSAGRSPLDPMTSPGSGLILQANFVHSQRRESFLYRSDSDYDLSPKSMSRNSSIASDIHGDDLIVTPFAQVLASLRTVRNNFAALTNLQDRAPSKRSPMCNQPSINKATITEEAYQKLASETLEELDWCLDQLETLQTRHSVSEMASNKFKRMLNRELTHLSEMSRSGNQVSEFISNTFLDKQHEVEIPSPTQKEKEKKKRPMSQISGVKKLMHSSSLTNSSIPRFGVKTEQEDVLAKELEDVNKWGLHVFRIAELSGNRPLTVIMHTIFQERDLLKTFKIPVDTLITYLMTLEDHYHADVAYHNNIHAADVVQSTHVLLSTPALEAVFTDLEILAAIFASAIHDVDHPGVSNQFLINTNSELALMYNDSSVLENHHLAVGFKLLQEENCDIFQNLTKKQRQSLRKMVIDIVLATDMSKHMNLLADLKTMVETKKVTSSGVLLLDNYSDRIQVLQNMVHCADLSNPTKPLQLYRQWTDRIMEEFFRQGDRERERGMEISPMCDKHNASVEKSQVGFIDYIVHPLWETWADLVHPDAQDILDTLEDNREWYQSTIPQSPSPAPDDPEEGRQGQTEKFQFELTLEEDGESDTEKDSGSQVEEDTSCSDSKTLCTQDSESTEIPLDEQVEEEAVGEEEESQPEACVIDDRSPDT

For the compound `CO/N=C(\C(=O)N[C@@H]1C(=O)N2C(C(=O)O)=C(CSc3nc(C)c(CC(=O)O)s3)CS[C@H]12)c1csc(N)n1` [CEFODIZIME], the AC50 in [1], in assay [2], in assay [3], in assay [4], in assay [5] and in [6] was over 30 µM throughout. Moreover, the half-maximal activity concentration (AC50) in assay [7], in assay [8], in assay [9], in assay [10], in assay [11] and in assay [12] was over 30 µM each time.

As to SITOSTEROLS, the AC50 in assay [1] was over 30 µM; in assay [2], over 30 µM; in assay [3] it was over 30 µM; in assay [4], over 30 µM; in [5], over 30 µM; in assay [6], over 10 µM. Moreover, the AC50 in [7], in assay [8], in assay [9], in [10], in assay [11] and in assay [12] was over 30 µM throughout.

On to `Cc1ccc(S(=O)(=O)NC(=O)N[C@H]2[C@H]3CC[C@@](C)([C@H]2O)C3(C)C)cc1` [GLIBORNURIDE], for which the half-maximal activity concentration (AC50) in assay [1], in assay [2], in assay [3], in assay [4], in assay [5] and in assay [6] was over 30 µM in each case. The AC50 in [7], in [8], in [9], in assay [10], in [11] and in [12] was over 30 µM in each case.

Consider `CO/N=C(\C(=O)N[C@@H]1C(=O)N2C(C(=O)[O-])=C(C[n+]3ccc(N)n3CCO)CS[C@H]12)c1csc(N)n1` [CEFOSELIS], for which the AC50 in assay [1], in assay [2], in assay [3], in assay [4], in [5] and in assay [6] was over 30 µM in each case. Besides, the AC50 in [7], in assay [8], in [9], in [10], in assay [11] and in assay [12] was over 30 µM each time.

In the case of `C[C@H](N)C(=O)N[C@@H](CCC(N)=O)C(=O)O` [ALANYL GLUTAMINE] (H-Ala-Gln-OH), the AC50 in [1], in [2], in [3], in assay [4], in assay [5] and in [6] was over 30 µM in each case. Also, the AC50 in assay [7], in assay [8], in assay [9], in [10], in assay [11] and in assay [12] was over 30 µM throughout.
